Key:
Dihydrofolate reductase = molecular target: T1, Dihydrofolate reductase (Homo sapiens, UniProt P00374)
T1 sequence (P00374 whole entry): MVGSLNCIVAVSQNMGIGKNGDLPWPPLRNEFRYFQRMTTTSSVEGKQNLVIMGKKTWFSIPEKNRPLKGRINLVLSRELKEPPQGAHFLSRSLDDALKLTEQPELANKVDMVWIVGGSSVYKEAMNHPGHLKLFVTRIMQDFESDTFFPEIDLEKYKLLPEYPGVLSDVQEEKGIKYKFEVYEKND
Description: Inhibition of human recombinant DHFR

Thymidylate synthase = Thymidylate synthase (Homo sapiens, UniProt P04818)
Description: Inhibition of human thymidylate synthase

[1] = molecular target: T2, Dihydrofolate reductase (Escherichia coli) (UniProt P0ABQ4); test: Inhibition of Escherichia coli DHFR at >[…] uM
T2 sequence (whole entry): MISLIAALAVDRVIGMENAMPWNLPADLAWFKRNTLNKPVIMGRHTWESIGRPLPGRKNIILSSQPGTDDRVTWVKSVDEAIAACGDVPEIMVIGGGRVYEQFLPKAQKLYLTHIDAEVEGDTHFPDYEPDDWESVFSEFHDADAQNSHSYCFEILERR

[2] = molecular target: T3, Bifunctional dihydrofolate reductase-thymidylate synthase (Toxoplasma gondii, UniProt Q07422)
T3 sequence (Q07422 whole entry): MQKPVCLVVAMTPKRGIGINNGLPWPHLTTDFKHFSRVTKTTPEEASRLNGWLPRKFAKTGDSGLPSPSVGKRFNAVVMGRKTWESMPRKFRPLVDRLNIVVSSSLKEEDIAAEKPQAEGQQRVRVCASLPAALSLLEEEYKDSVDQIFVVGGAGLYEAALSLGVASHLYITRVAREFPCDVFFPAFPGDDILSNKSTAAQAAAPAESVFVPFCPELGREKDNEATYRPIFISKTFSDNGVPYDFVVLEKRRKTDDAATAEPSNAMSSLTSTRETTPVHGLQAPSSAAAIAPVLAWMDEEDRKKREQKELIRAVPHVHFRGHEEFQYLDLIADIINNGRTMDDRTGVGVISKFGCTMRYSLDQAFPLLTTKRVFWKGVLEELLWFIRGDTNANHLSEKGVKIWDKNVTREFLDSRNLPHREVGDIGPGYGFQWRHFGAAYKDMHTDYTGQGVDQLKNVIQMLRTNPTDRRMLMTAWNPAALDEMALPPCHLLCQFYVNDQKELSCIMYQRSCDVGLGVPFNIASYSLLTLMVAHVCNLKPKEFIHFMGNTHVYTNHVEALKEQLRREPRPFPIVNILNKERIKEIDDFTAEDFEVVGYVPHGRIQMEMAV
Description: Inhibition of Toxoplasma gondii thymidylate synthase

[3] = molecular target: T3, Bifunctional dihydrofolate reductase-thymidylate synthase; remark: listed apart in the source
Description: Inhibition of Toxoplasma gondii DHFR

Sequence of Thymidylate synthase (P04818 whole entry): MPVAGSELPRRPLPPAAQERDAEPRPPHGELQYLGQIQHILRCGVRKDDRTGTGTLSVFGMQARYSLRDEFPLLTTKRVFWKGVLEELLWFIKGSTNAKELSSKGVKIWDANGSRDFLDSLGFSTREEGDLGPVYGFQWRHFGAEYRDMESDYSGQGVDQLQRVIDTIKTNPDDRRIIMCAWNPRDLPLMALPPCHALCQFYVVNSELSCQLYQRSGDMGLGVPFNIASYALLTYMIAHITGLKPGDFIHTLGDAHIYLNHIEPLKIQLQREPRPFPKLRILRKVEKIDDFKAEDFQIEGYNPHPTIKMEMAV

| IC50 (Dihydrofolate reductase) [nM] | Compound | IC50 (Thymidylate synthase) [nM] | inhibition [1] [%] | IC50 [2] [nM] | IC50 [3] [nM] |
| --- | --- | --- | --- | --- | --- |
| 2200 | Cc1[nH]c2nc(N)[nH]c(=O)c2c1Sc1ccc(C(=O)N[C@@H](CCC(=O)O)C(=O)O)cc1 |  |  |  |  |
|  | Cc1sc2nc(N)[nH]c(=O)c2c1Sc1ccc([N+](=O)[O-])cc1 | 110 |  |  |  |
|  | Cc1sc2nc(N)[nH]c(=O)c2c1Sc1ccc(Cl)c(Cl)c1 | 110 | 0 | 1200 | 28 |
| 2600 | Cc1sc2nc(N)[nH]c(=O)c2c1Sc1ccc(F)cc1 | 1100 |  |  |  |
| 1500 | Cc1sc2nc(N)[nH]c(=O)c2c1Sc1ccc(Cl)cc1 | 260 |  | 2600 | 31 |
| 3500 | Cc1sc2nc(N)[nH]c(=O)c2c1Sc1ccccc1 | 1200 |  | 8400 | 120 |

| Compound | IC50 (Dihydrofolate reductase) [nM] | IC50 (Thymidylate synthase) [nM] | inhibition [1] [%] | IC50 [2] [nM] | IC50 [3] [nM] |
| --- | --- | --- | --- | --- | --- |
| Cc1sc2nc(N)[nH]c(=O)c2c1Sc1cc(Cl)cc(Cl)c1 | 5600 | 1000 | 0 | 2300 | 64 |
| Cc1sc2nc(N)[nH]c(=O)c2c1Sc1ccc2ccccc2c1 | 2900 | 120 |  | 1200 | 44 |
| Cc1sc2nc(N)[nH]c(=O)c2c1Sc1ccncc1 | 2500 | 280 |  | 1400 | 34 |
